# Results reported in patent US12576107B2, “Methods of treating chronic inflammatory diseases” (METIMEDI PHARMACEUTICALS CO., LTD., priority 2018, dated 2026).
# Tests used:
# lactate dehydrogenase A [1] = experiment: Human endothelial cell in vitro experiment, Western blot in HUVEC; assay type: cell-based; details: 2.5 mM, human umbilical vein endothelial cells
# Description: Human Umbilical Vein Endothelial cell line, HUVEC, was purchased from American Type Culture Collection (Manassas, VA, USA). The HUVEC cells were Endothelial Cell Growth Medium 2 maintained in Endothelial Cell Growth Medium 2 Supplement MIX (PromoCell, Heidelberg, Germany)
# (§1) To prepare whole cell lysate, cells were lysed with lysis buffer (1% NP-40, 0.25% sodium deoxycholate, 150 mM NaCl, 1 mM EDTA, 1% Triton X-100, 50 mM Tris-HCl (pH 7.4), 10% Glycerol) with protease inhibitor cocktail (Roche, Basel, Switzerland) and phosphatase inhibitors (NA3VO4 1 mM, NaF 100 mM). Then, protein concentration was measured using the Bicinchoninic acid (BCA) assay kit (Thermo Scientific, Waltham, MA). Whole cell or nuclear lysates were transferred onto polyvinylidene fluoride membranes (Merck Millipore, Billerica, MA, USA). After blocking in 5% non-fat milk (Bio-Rad, Hercules, CA, USA) for 1 h, the membranes were incubated overnight at 4° C. with primary antibody diluted in TBST containing 100 mM Tris-HCl (pH 7.5), 1.5 M NaCl, and 0.5% Tween-20 obtained from Sigma-Aldrich, to which 5% BSA and 0.1% sodium azide (Sigma-Aldrich) had been added. Specific primary antibodies to HIF-1α (1:1000), HIF-2α (1:1000), LDH-A (1:1000), LDH-B (1:1000), TLR-4 (1:1000), NF-κB (1:1000), VEGF (1:1000), α-tubulin (1:1000), Actin (1:1000), and GAPDH (1:5000). […]
# [2] = system: hypoxia inducible factor-1α (HIF-1α); experiment: Liver fibrosis in vitro experiment, Western blot in LX-2 cells; assay type: cell-based; details: 2.5 mM, LX-2 cells (human hepatic stellate cell)
# Description: Human Hepatic Stellate cell line, LX-2, was purchased from Sigma-Aldrich (St Louis, MO, USA). The LX-2 cells were maintained in DMEM containing 2% fetal bovine serum (Life Technologies, Gaithersburg, MD, USA), 100 IU/ml penicillin, and 100 μg/ml streptomycin (Welgene, Daegu, South Korea).
# as §1
# [3] = system: LPS-induced periodontal disease rats; experiment: Periodontal disease model, intragingival injection of LPS; assay type: in vivo, Sprague-Dawley (SD) rats; details: 2 mg/kg daily subcutaneous 21 days
# Description: Animals. […] Eight-week old male Sprague-Dawley (SD) rats were obtained from Samtako Co. (Osan, Gyeonggi-do, Republic of Korea) and bred under specific-pathogen-free (SPF) conditions. All animals were maintained in a 12-hour light/dark cycle at 22-25° C. with free access to food and water.
# Dissolve 1 mg of LPS powder in 100 μl of saline. Keep the tubes on ice if LPS is going to be used fresh. For long storage, use screw cap vials are preferred. The aliquots were stored in a deep freezer (−20° C.). Calcium lactate was purchased from Sigma Aldrich (St. Louis, MO, USA).
# Animal model for periodontal disease. Periodontal disease was induced by intragingival injection of LPS (1 mg/100 μl) in sterile saline. A fine hypodermic needle was inserted at the mesiolateral aspect of the first right mandibular molar and the tip moved distally so that the injection was made at the interdental papilla between the first and second molars. The injection was slowly made, and the needle held in place for 10 seconds post injection to ensure that the LPS was not lost through the needle track.
# Histological analysis. […] Mount with mounting medium.
# lactate dehydrogenase A [4] = experiment: Immunocytochemistry of lactate dehydrogenase A in ARPE-19 cells; assay type: cell-based, Human; details: 2.5 mM, normoxia
# Description: (§2) Human retinal pigment epithelium cell line, ARPE-19, was purchased from American Type Culture Collection (Manassas, VA, USA). The ARPE-19 cells were maintained in RPMI1640 containing 10% fetal bovine serum (Life Technologies, Gaithersburg, MD, USA), 100 IU/ml penicillin, and 100 μg/ml streptomycin (Welgene, Daegu, South Korea).
# (§3) ARPE-19 and SK-N-SH cells were fixed on bio-coated coverslips (BD bioscience, San Jose, CA, USA) by 4% PFA for 20 min and then incubated with the primary antibodies for 15 h. The primary antibodies were as follows: HIF-1a (1:300, BD Biosciences, San Jose, CA, USA); LDH-A (1:300, Santa Cruz Biotechnology, Santa Cruz, CA, USA); LDH-B (1:300, Santa Cruz Biotechnology, Santa Cruz, CA, USA); NF-κB (1:300, Santa Cruz Biotechnology, Santa Cruz, CA, USA); TLR-4 (1:300, Santa Cruz Biotechnology, Santa Cruz, CA, USA); apoE (1:200, Santa Cruz Biotechnology, Santa Cruz, CA, USA). After PBS wash, the cells were incubated with anti-mouse secondary biotinylated antibody (1:2000, Vector Laboratorie, Burlingame, CA, USA) and visualized with streptavidin conjugated to Fluorescein (Vector Laboratorie, Burlingame, CA, USA). […] Confocal fluorescence images were obtained with confocal laser scanning microscopy (LSCM, Nikon A1+, Tokyo, Japan) under a 60× oil immersion lens.
# hypoxia-mediated factors = experiment: Liver CID in vitro experiment, Western blot in HepG2 cells; assay type: cell-based, Human; details: 2.5 mM, HepG2 cells (liver epithelium)
# Description: as §2, with “Hepatocellular carcinoma” for “retinal pigment epithelium”, “HepG2,” for “ARPE-19,”, “HepG2” for “ARPE-19”, “RPMI 1640” for “RPMI1640”
# as §1
# lactate dehydrogenase B = experiment: Immunocytochemistry of lactate dehydrogenase B in ARPE-19 cells; assay type: cell-based, Human; details: 2.5 mM, hypoxia
# Description: as §2, §3
compound,measurement,setting,value
CC(O)C(=O)[O-].CC(O)C(=O)[O-].[Ca+2] (stereo not shown) [calcium lactate],"hypoxia-mediated factors (lactate dehydrogenase A), Western blot",lactate dehydrogenase A [1],decreased
same,"hypoxia inducible factor-1α (HIF-1α), Western blot",[2],decreased
same,ligaments and gingiva around the root of tooth (Masson's trichrome),[3],recovered
same,morphology of the upper gum (Masson's trichrome),[3],recovered
same,"lactate dehydrogenase A, immunocytochemistry",lactate dehydrogenase A [4],decreased
same,"hypoxia-mediated factors, Western blot",hypoxia-mediated factors,changed
same,"lactate dehydrogenase B, immunocytochemistry",lactate dehydrogenase B,increased
